In data set [1] the test system is combinatorial α-synucleinopathy PD mouse model. Put plainly: Sporadic PD mouse model, combinatorial PFF and rAAV-αSyn nigral injection, PCiv diet. The data set is classed as in vivo. Here is the method:
Figure 4 PCiv administration suppresses PFF-induced dopaminergic neurodegeneration, α-synuclein aggregation, and motor dysfunction in vivo. (A) Bradykinesia (slowness of movement) assessed by pole test for control and combinatorial PFF/AAV-αSyn-injected mice with or without PCiv treatment (50 mg PCiv/kg diet for 30 days, n = 5 per group). Control mice are those nigrally injected with PBS and AAV-GFP. (B) Motor coordination of the mice in the experimental group was assessed by an accelerated rotarod test (n = 5 per group). (C) Representative tyrosine hydroxylase (TH) immunohistochemical staining of the ventral midbrains of control and combinatorial α-synucleinopathy-PD mice fed with a PCiv diet (50 mg/kg diet for 30 days) or normal chow diet. (D) Stereological assessment of TH-positive dopaminergic neurons in the substantia nigra pars compacta of the injection side of the indicated mice groups (n = 5 mice per group). (E) Representative immunofluorescence images of pS129-αSyn and TH in the substantia nigra coronal sections of the indicated experimental mice groups. (F) Quantification of relative pS129-αSyn fluorescence intensities in the TH-positive dopamine neurons of the substantia nigra sections from the indicated experimental groups (n = 28 cells from 3 mice per group). The quantified data are expressed as means ± SEMs. Statistical significance was determined by an ANOVA test with Tukey’s post hoc analysis, ** p < 0.01, *** p < 0.001, and **** p < 0.0001. ns = nonsignificant.
All animal experiments were approved by the Ethical Committee of Sungkyunkwan University Animal Care and Use Committee of Gachon University (Approval number: […]2019-06-15-1; GIACUC-R2021006) and were conducted in accordance with all applicable international guidelines. Male C57BL/6N mice (2 months old) were obtained from Orient Bio (Suwon, Korea). The animals were housed in air-controlled rooms with a 12-h dark/light cycle. Mice and rats were provided ad libitum access to diet and water. All efforts were made to minimize animal suffering and the number of animals used in the experiments. A synthetic PCiv diet was supplied to the mice. The PCiv diet administration (50 mg/kg/day for PFF PD mouse models) began on day 0 and was continued for 30 days. Intranigral injection of the rAAV-αSyn and PFF mixture was performed on day 0. Mice brains were prepared for analysis, as described below. To test the therapeutic effects of PCiv, we prepared a diet containing PCiv. To facilitate each mouse consuming 2 mg of PCiv per day, we generated a mixture of 400 mg of PCiv per kg of rodent diet and then supplied it to the mice.
The α-synucleinopathy PD model was created by co-injecting PFF (10 µg; ventral tegmental area: AP, −3.4 mm; ML, −0.5 mm; DV, −4.3 mm) and rAAV-αSyn (AAV serotype 1, 1 µL of titer 5 × 1011 GC/mL; substantia nigra pars compacta: AP, −3.4 mm; ML, −1.3 mm; DV, −4.3 mm) into a 2-month-old C57BL/6N mouse. rAAV-GFP was used as the control. PFF was prepared from pure recombinant human α-synuclein (Proteos, Inc., Kalamazoo, MI, USA) according to a previous report. Before use, sonicated PFFs were evaluated using Western blotting and a functional assay in cortical neuron cultures (pS129-αSyn induction and neurotoxicity). After co-injecting PFF and rAAV-αSyn, PD models were fed a PCiv or normal diet for a month. For stereological analysis, the animals were perfused 1 month after intranigral injection and fixed intracardially with ice-cold PBS. The tissues were post-fixed with 4% paraformaldehyde overnight. The fixed mice brains were cryoprotected in 30% sucrose (wt/vol) in PBS and subsequently processed for immunohistochemistry.
Coronal sections (thickness, 35 µm) of the fixed and cryoprotected brains were cut, including the substantia nigra. […]

Data set [2] can be described thus: Dissolution in dosing vehicle. The data set is classed as physicochemical. The conditions noted are these: DMSO:PEG400:saline ratio of 5:70:25. Here is the method: In vivo rat pharmacokinetic studies were performed for intravenous and oral administration of PCiv as previously reported. Sprague-Dawley rats (8 weeks old, 260–280 g) were purchased from Orient Bio Inc. (Seongnam, Korea). Rats were maintained with free access to food and water under a 12:12 h light/dark cycle for 1 week. For pharmacokinetic studies, under anesthetic conditions (20 mg/kg tiletamine/zolazepam [Zoletil; Vibrac Laboratories, Carros, France] administered intramuscularly), the femoral vein and artery were surgically cannulated using polyethylene tubing (PE50; Clay Adams, Parsippany, NJ, USA) in fasted rats. Then, PCiv was administered intravenously and orally at a dose of 10 mg/kg (n = 4–5). The drug was dissolved in a vehicle (DMSO:PEG400:saline at a ratio of 5:70:25). Blood samples (approximately 100 μL) were collected at predetermined time points (0, 1, 5 (intravenous administration only), 15, 30, 60, 120, 180, 240, 360, and 480 min) after drug administration. […] The PCiv level was determined using a CapcellpakTM C18 5 μm column (250 × 1.5 mm, Shiseido Fine Chemical Co., Tokyo, Japan), as previously described. […] The tissue concentration levels were calculated as the PCiv amount (ng) per gram of organ weight.

Where [3] appears, read: PD mice, PCiv diet 50 mg/kg diet for 30 days.

Here are results for 1 compound from PMC9369442, “Synthetic Peucedanocoumarin IV Prevents α-Synuclein Neurotoxicity in an Animal Model of Parkinson’s Disease” (International Journal of Molecular Sciences, 2022).

`C/C=C(\C)C(=O)O[C@H]1[C@H](OC(C)=O)c2c(ccc3ccc(=O)oc23)OC1(C)C` (relative stereo) [PCiv, trans-4′-acetyl-3′-tigloylkhellactone]: the “total α-synuclein expression” value in data set [1] (PBS+AAV-GFP and PFF+AAV-αSyn injection groups, PCiv diet) was “no alteration”. For the same compound, the “development of motor impairment (pole and rotarod tests)” value in data set [1] (PD mice, PCiv diet 50 mg per kg diet, four weeks) was “almost completely prevented”. Further, in data set [1] (setting [3]), the “dopaminergic neurons (TH-positive, substantia nigra)” value is “marked protection” and the “α-synuclein aggregation pathology (pS129-αSyn in TH-positive dopamine neurons)” value is “largely blocked”. Besides, the “dopamine neuron viability in control mouse group” value in data set [1] (control mice (PBS + AAV-GFP), PCiv diet) is reported as “no effect”. For the same compound, the overt toxicity entry in data set [1] (in cells and in vivo mouse models) was “did not observe any overt toxicity”. The “dissolution in vehicle solution” value in data set [2] is on record as “well-dissolved”.
